{"source": "patent US20220362330A1", "about": "“Compositions and Methods for Increasing Epithelial Barrier Function” (The Board of Trustees of the Leland Stanford Junior …, priority 2019, published 2022)", "key": {"genital mucosal barrier [1]": {"system": "genital mucosal barrier", "assay": "Murine tissue permeability assay, low molecular weight fluorescent molecules given intravaginally", "format": "in vivo, mice", "conditions": "germ-free mice"}, "HSV-1": {"system": "HSV-1", "assay": "Genital HSV-1 GFP infection, virus replication in vaginal epithelium", "format": "in vivo, mice", "conditions": "1.5 ug/30 uL ivag 24 h prior to 3×10^3 PFU HSV-1 GFP; tissue 24 h after infection", "protocol": "Estrus-stage or DMPA-treated mice were intravaginally administered vehicle or recombinant mouse Fc-EFNA3 at 1.5 ug/30 uL 24 h prior to genital infection with 3×10^3 PFU HSV-1q GFP (fluorescent virus). Vaginal tissue was recovered 24 h after infection and evaluated for HSV-1 replication in the vaginal epithelium using confocal microscopy. […] To evaluate if treatment with rm-EphrinA3 protects mice from lethal HSV-2 infection, DMPA-treated mice were intravaginally administered Fc- or His-tagged versions of the rm-protein prior to infection. […] Because the microarray data indicated EphrinA1, EphrinA2, EphrinA3, EphrinA4, and EphrinA5 were upstream regulators of Dsg1 and Dsc1 expression in the mouse vagina, we hypothesized that capacity of EphrinA3 to increase cell-cell adhesion molecule expression may be shared by other members of the EphrinA family."}, "[2]": {"system": "genital mucosal permeability", "assay": "Human tissue permeability assay on biopsy specimens", "parameters": "species or system women", "protocol": "(§1) To confirm the relevance of the mouse model findings, DMPA-mediated changes in mucosal permeability was explored with ectocervical biopsies from women using no hormonal contraceptive and again 1 month after they initiated DMPA.\n[…] biopsy specimens obtained from women were placed in transport media, transferred into sterile 96-well plates, and incubated 45 minutes in a 20 μL solution of PBS containing LY and DR (at the same concentrations used in mouse studies). Tissue was likewise fixed and embedded as detailed for mice. Stratified squamous epithelium, lamina propria, and connective tissue were identified using light microscopy (at 100× magnification), while images obtained at 400× magnification were used to quantify penetration of LY into ectocervical tissue."}, "DSG1 protein": {"system": "DSG1 protein", "assay": "DSG1 protein levels in vaginal tissue, immunofluorescent staining and confocal microscopy", "format": "in vivo, mice", "conditions": "progestin-treated mice vs mice in estrus", "protocol": "Excised mouse vaginas were formaldehyde fixed and paraffin embedded (FFPE), and 10 μm sections mounted on glass slides and de-paraffinized by sequential immersion in 100% xylene, 100% ethanol, 96% ethanol, and sterile DEPC-treated water. Antigen retrieval was performed using 10 mM sodium citrate buffer (pH 6.0) containing 0.05% Tween 20 (both Sigma-Aldrich) (20 minutes at 95° C.). After 3 PBS washes, sections were incubated overnight in 10% normal goat serum (Abcam, Cambridge Mass.) at 4° C., then incubated for 1 h at ambient temperate with rabbit anti-desmoglein-1 (clone EPR6766(B)) antibody, washed and incubated for 1 h with AlexaFluor® 488-labeled goat anti-rabbit IgG (antibodies from Abcam) (all antibodies were diluted in PBS with 1% BSA and 0.05% Tween 20). Sections were stained with DAPI and evaluated for levels of DSG1 protein (defined by calculating pixel numbers per 100 μm^2) using confocal microscopy and ImageJ software."}, "DSG1": {"system": "DSG1", "assay": "DSG1 gene expression in ectocervical biopsies from women", "format": "in vivo", "conditions": "1 month after initiating DMPA vs no hormonal contraceptive", "excerpt": "FIG. 3 is a graph showing the effect of DMPA on ectocervical DSG1 gene expression in women. Ectocervical biopsy tissue collected from the same women; before they started (No HC) and 1 month after they initiated DMPA.\nas §1\nHuman ectocervical and murine vaginal tissues were immediately immersed in 1 mL of RNAlater® (Qiagen), stored for 24 h at 4° C., and stored long-term at −80° C. RNA isolated using the RNeasy Lipid Tissue Kit (Qiagen) using manufacturer's instructions was re-suspended in nuclease-free water and quantified using a NanoDrop spectrophotometer (Thermo Scientific). The following mouse primers were utilized: desmocollin 1 (Mm00496525_ml), desmoglein-1α (Mm00809994_s1), ephrinA3 (Mm01212723_g1) and pyruvate carboxylase (Mm00500992_ml) as housekeeping reference gene (all from Thermo Scientific). […] To define relative gene expression, 100 ng of RNA was mixed with TaqMan® RNA-to-Ct™ 1-Step Kit and adequate primer (final volume of 10 μL/well) using manufacturer's instructions (Life Technologies). qRT-PCR was performed using a Quantstudio3 Thermal Cycler, and data analyzed via Quanstudio Software (Applied Biosystems)."}, "genital mucosal barrier [3]": {"system": "genital mucosal barrier", "assay": "Murine tissue permeability assay, low molecular weight fluorescent molecules given intravaginally", "format": "in vivo, mice", "protocol": "Effects of progestins on genital mucosal barrier permeability were evaluated by intravaginally (ivag) administering 457 Da and 70 KDa-sized fluorescent molecules to mice in estrus or diestrus-stage or after DMPA or LNG treatment. Mice were grouped as follows: untreated in estrus, untreated in diestrus, DMPA treated, or LNG treated. The mice were intravaginally administered a PBS solution containing Lucifer yellow (457 Da) and Texas-Red-conjugated dextran (70 KDa). Animals were euthanized 45 minutes later to assess vaginal tissue penetration of these molecules by confocal microscopy. […] Mucosal permeability was increased moderately by diestrus, but dramatically by DMPA or LNG. Conversely, permeability increases were negligible in estrus-stage mice and mice treated with MePRDL or DMPA and RU486. This indicates exogenous progestins increase genital mucosal permeability.\nTo evaluate mucosal permeability to low molecular weight molecules, indicated groups of mice were sedated, and 10 μL of a PBS solution containing 62.5 μg of dextran Texas-Red® (DR) (MW=70,000 Da) and 50 μg of Lucifer yellow CH, lithium salt (LY) (MW=457.2 Da) (both from Life Technologies) administered intravaginally. 45 minutes later, mice were euthanized, and excised vaginal tissue fixed in formaldehyde. Fixed tissue was embedded in agarose, and 200-300 μm specimens were sectioned with a vibratome. After counterstaining with 4,6-diamidino-2-phenylindole (DAPI), confocal microscopy images were acquired by sequential scanning to prevent fluorescence crossover."}, "desmocollin-1 (DSC1)": {"system": "desmocollin-1 (DSC1)", "assay": "qRT-PCR of Dsc1 gene expression in vaginal tissue", "format": "in vivo, mice", "conditions": "progestin-treated mice vs mice in estrus", "protocol": "To define progestin-mediated changes in mucosal permeability, vaginal tissue from mice in estrus, diestrus, or after DMPA or LNG treatment was used to measure expression of the desmosomal cadherins desmoglein-1a (DSG1a) and desmocollin-1 (DSC1).\nHuman ectocervical and murine vaginal tissues were immediately immersed in 1 mL of RNAlater® (Qiagen), stored for 24 h at 4° C., and stored long-term at −80° C. RNA isolated using the RNeasy Lipid Tissue Kit (Qiagen) using manufacturer's instructions was re-suspended in nuclease-free water and quantified using a NanoDrop spectrophotometer (Thermo Scientific). The following mouse primers were utilized: desmocollin 1 (Mm00496525_ml), desmoglein-1α (Mm00809994_s1), ephrinA3 (Mm01212723_g1) and pyruvate carboxylase (Mm00500992_ml) as housekeeping reference gene (all from Thermo Scientific). These human primers were used: desmoglein-1 (Hs00355084_m1) and glucose-6-phosphate isomerase (Hs00976711_m1) as a housekeeping reference gene. To define relative gene expression, 100 ng of RNA was mixed with TaqMan® RNA-to-Ct™ 1-Step Kit and adequate primer (final volume of 10 μL/well) using manufacturer's instructions (Life Technologies). qRT-PCR was performed using a Quantstudio3 Thermal Cycler, and data analyzed via Quanstudio Software (Applied Biosystems)."}}, "data": [{"smiles": "CC(=O)O[C@]1(C(C)=O)CC[C@H]2[C@@H]3C[C@H](C)C4=CC(=O)CC[C@]4(C)[C@H]3CC[C@@]21C", "note": "[DMPA]", "values": [{"measurement": "permeability", "setting": "genital mucosal barrier [1]", "result": "increased permeability"}, {"measurement": "Foci of virus replication observed in vaginal epithelium", "setting": "HSV-1", "result": "observed"}, {"measurement": "mucosal permeability", "setting": "[2]; specimens collected after initiating hormonal contraceptive", "result": "increased mucosal permeability"}, {"measurement": "correlation between serum DMPA levels and genital mucosal permeability", "setting": "[2]; women", "result": "strong positive correlation"}, {"measurement": "DSG1a protein expression in vaginal tissue", "setting": "DSG1 protein", "result": "significantly reduced"}, {"measurement": "DSG1 expression in ectocervical tissue", "setting": "DSG1", "result": "significantly lower"}, {"measurement": "penetration of the 457 Da molecules into vaginal tissue", "setting": "genital mucosal barrier [3]; confocal images, 45 minutes after ivag administration", "result": "greatest penetration"}, {"measurement": "Mucosal permeability increase", "setting": "genital mucosal barrier [3]; mice, ivag Lucifer yellow (457 Da) and Texas-Red dextran (70 KDa), 45 minutes, confocal microscopy", "result": "dramatically"}, {"measurement": "DSC1 gene expression in vaginal tissue", "setting": "desmocollin-1 (DSC1)", "result": "decrease gene expression levels"}]}]}
